Results on 4 compounds are retold here after patent US20210002209A1, “NOVEL CRYSTALLINE FORMS OF TAMIBAROTENE FOR TREATMENT OF CANCER” (TRANSGENEX NANOBIOTECH, INC., priority 2018, published 2021).

One data set deals with A549. Kind of data set: IC50 studies, monolayer cell culture assay (CellTiter-Glo cell viability, 72 hours). The settings on record: A549, lung. In kind it is cell-based. How it is done:
(§1) Cancer cell lines listed in Table 1, were subjected for testing anti-cancer potency or the half maximal inhibitory concentration (IC50) of tamibarotene molecular complexes.
(§2) The SK-ES-1, U-2 OS, and SAOS-2 cells were cultured in a growth medium that is ATCC-formulated McCoy's 5a Medium Modified, Catalog No. 30-2007. The PC-3, PANC-1, SK-Mel-5, A549, H460, and H1299 were cultured in a growth medium that is ATCC-formulated Dulbecco's Modified Eagle's Medium (DMEM), Catalog No. 30-2002. The cells were seeded on 96-well microtiter plates with 3500 cells per well and cultured in an incubator (Model 3120, Thermo Scientific, USA) with a constant temperature at 37° C. and 5% carbon dioxide (CO2) gas for 24 hours.
(§3) The new tamibarotene molecular complexes were made into a series with concentration of 200 nM to 40 nM, 8 nM, 1.6 nM, 0.32 nM, and 0.064 nM. […]
(§4) The treated cells in the 96 well plate was then further cultured at the same conditions for 72 hours and then subjected for a final cell viability measurement. The measurement used a homogeneous method to determine the number of metabolically active cells presented in each of treatments. A testing reagent for the measurement is a mixture solution of the CellTiter-Glo® 2.0 reagent (CTG, Promega Cat #G9243, USA) and growth medium in 1:1 ratio in this respect.
(§5) The 96-well plate with the new molecular complex treated cells was taken out from incubator after the 72 hours of incubation, and the treatment solution in each well was removed using a multichannel pipette, and 100 μl of the testing reagent were added into each well. The plate was then placed on a plate shaker for 15 min. The plate was covered with a piece of aluminum foil to protect the CTG luminescence during the shaking time.
(§6) Then 90 μl of the 100 μl testing reagent were transferred into an opaque-walled 96-well plate for the CTG luminescence reading on a plate reader (SynergyH4 Hybrid Reader, Biotek, USA). The luminescence intensity of each treatment was positively correlated with the number of cells survived during the treatments.
(§7) All the treatment data was normalized by comparing with the control samples that had only growth medium without any molecular complexes. The half maximal inhibitory concentration (IC50) data was calculated using the nonlinear regression model and dose-responses (inhibition) curve built in the software. Each of treatments was performed in three replications each time and repeated three times for validation. The IC50 average […] (Avg) and standard deviation (STDV) were calculated based on the three replications.

A further data set relates to H1299. Described as above. The class given is cell-based. The protocol: as §1, §2, §3, §4, §5, §6, §7
The test system of a further data set is H460. The description is as above. The class given is cell-based. How it is done: as §1, §2, §3, §4, §5, §6, §7
The next data set relates to PC-3. Described as above. The settings on record: Homo sapiens, PC-3, prostate. In kind it is cell-based. The protocol: as §1, §2, §3, §4, §5, §6, §7
Another data set has as its system SAOS. Described as above. The following applies: sarcoma. The class given is cell-based. The protocol: as §1, §2, §3, §4, §5, §6, §7
In the next data set the test system is SK-ES-1. The description is as above. The settings on record: Homo sapiens, SK-ES1, SK-ES-1, sarcoma. The class given is cell-based. The protocol:
as §1, §2, §3, §4, §5, §6, §7

A further data set deals with SK-Mel-5. Described as above. The class given is cell-based. The settings on record: Homo sapiens, SK-Mel-5, skin. How it is done:
as §1, §2, §3, §4, §5, §6, §7

Another data set deals with U-2 OS. Described as above. The class given is cell-based. The following applies: Homo sapiens, U2OS, sarcoma. How it is done:
as §1, §2, §3, §4, §5, §6, §7

For data set [1] the following is noted: cited from earlier work.
The mark [2] stands for this setting: Test I, read-out: IC50 Test(I) Avg.
Setting [3] is: Test II, read-out: IC50 Test (II) Avg.
The mark [4] stands for this setting: Test III, read-out: IC50 Test (III) Avg.
Where [5] appears, read: H1299, lung, Test I, read-out: IC50 Test(I) Avg.
The mark [6] stands for this setting: H1299, lung, Test II, read-out: IC50 Test (II) Avg.
Where [7] appears, read: H1299, lung, Test III, read-out: IC50 Test (III) Avg.
Setting [8] is: H460, lung, Test I, read-out: IC50 Test(I) Avg.
[9] abbreviates: H460, lung, Test II, read-out: IC50 Test (II) Avg.
Where [10] appears, read: H460, lung, Test III, read-out: IC50 Test (III) Avg.

SMILES strings stand for the structures. pIC50: −log10 of the molar value. ≈ marks a conversion by molar mass, not a printed value. Read-outs that look alike come from different tables or passages of the source. Bounds are passed on as bounds.

Consider `CC1(C)CCC(C)(C)c2cc(NC(=O)c3ccc(C(=O)O)cc3)ccc21.O=C(O)c1ccccc1-c1ccccc1C(=O)O` [TAM-diphenic acid], for which the pIC50 in the data set on A549 (setting [2]) is 4.66; in the data set with A549 (setting [3]), 4.41; in the data set on A549 (setting [4]), 4.57; in the data set with H1299 (setting [5]) it was 4.39; in the data set with H1299 (setting [6]) it was 4.38; in the data set on H1299 (setting [7]), 4.40. Besides, the pIC50 with H460 (setting [8]) is 4.46; in the data set with H460 (setting [9]), 4.46; in the data set on H460 (setting [10]) it was 4.49.
In the case of `CC1(C)CCC(C)(C)c2cc(NC(=O)c3ccc(C(=O)O)cc3)ccc21.NC(=O)c1cccnc1` [TAM-nicotinamide], the pIC50 is 4.25 in the data set with A549 (setting [2]); 4.23 in the data set on A549 (setting [3]); 4.30 in the data set with A549 (setting [4]); 4.30 in the data set on H1299 (setting [5]); 4.25 in the data set on H1299 (setting [6]); 4.27 with H1299 (setting [7]). The pIC50 was 4.25 with H460 (setting [8]), 4.29 in the data set with H460 (setting [9]) and 4.30 with H460 (setting [10]).
In the case of `CC1(C)CCC(C)(C)c2cc(NC(=O)c3ccc(C(=O)O)cc3)ccc21` [TAM, 4-[(5,5,8,8-tetramethyl-5,6,7,8-tetrahydronaphthalen-2-yl)carbamoyl]benzoic acid, reference compound], the negative logarithm of the IC50 (pIC50) with A549 (Homo sapiens, Test I, read-out: IC50 Test(I) Avg) is 4.22; in the data set with A549 (Homo sapiens, Test II, read-out: IC50 Test (II) Avg), 4.22; in the data set on A549 (Homo sapiens, Test III, read-out: IC50 Test (III) Avg), 4.24; in the data set on H1299 (Homo sapiens, NCI-H1299, H1299, lung, Test I, read-out: IC50 Test(I) Avg), 4.10; in the data set with H1299 (Homo sapiens, NCI-H1299, H1299, lung, Test II, read-out: IC50 Test (II) Avg) it was 4.17; with H1299 (Homo sapiens, NCI-H1299, H1299, lung, Test III, read-out: IC50 Test (III) Avg), 4.08. The negative-log IC50 (pIC50) in the data set with H460 (Homo sapiens, NCI-H460, H460, lung, Test I, read-out: IC50 Test(I) Avg) is 4.16; in the data set with H460 (Homo sapiens, NCI-H460, H460, lung, Test II, read-out: IC50 Test (II) Avg), 4.23; in the data set on H460 (Homo sapiens, NCI-H460, H460, lung, Test III, read-out: IC50 Test (III) Avg), 4.17; in the data set with PC-3 (setting [2]) it was less than 4.00; in the data set with PC-3 (setting [3]), less than 4.00; in the data set with PC-3 (setting [4]), less than 4.00. The negative logarithm of the IC50 (pIC50) is 4.26 in the data set with SAOS (setting [2]); 4.33 with SAOS (setting [3]); less than 4.00 in the data set with SAOS (setting [4]); less than 4.00 with SK-ES-1 (setting [2]); 4.14 with SK-ES-1 (setting [3]); 4.14 with SK-ES-1 (setting [4]). Further, the negative logarithm of the IC50 (pIC50) in the data set on SK-Mel-5 (setting [2]) is less than 4.00; in the data set with SK-Mel-5 (setting [3]), less than 4.00; in the data set with SK-Mel-5 (setting [4]), less than 4.00; in the data set with U-2 OS (setting [2]), less than 4.00; in the data set on U-2 OS (setting [3]) it was 4.11; in the data set on U-2 OS (setting [4]), 4.16. Further, in [1], the “solubility in DMF, methanol, ethanol, DMSO, and other organic solvents” value is listed as “soluble”. Also, the “solubility in acetonitrile, water, and various other buffer solutions” value in [1] (pH 3~7, from CN101200435 (B)) is listed as “insoluble”. In data set [1] (water, drug bank), the water solubility is 0.575 µg/mL (≈ 1.64 µM).
With `CC1(C)CCC(C)(C)c2cc(NC(=O)c3ccc(C(=O)O)cc3)ccc21.O=C(O)c1ccc(-c2ccccc2)cc1` [TAM-biphenyl-4-carboxylic acid], the pIC50 is 4.31 with A549 (setting [2]); 4.38 with A549 (setting [3]); 4.33 in the data set on A549 (setting [4]); 4.18 in the data set on H1299 (setting [5]); 4.22 in the data set with H1299 (setting [6]); 4.19 in the data set on H1299 (setting [7]). Moreover, the pIC50 in the data set with H460 (setting [8]) is 4.25; with H460 (setting [9]), 4.29; in the data set on H460 (setting [10]), 4.26; with SAOS (setting [2]), 4.36; with SAOS (setting [3]) it was 4.43; with SAOS (setting [4]), less than 4.00.
